Laboratory results: US20250255981A1, “IMMUNOMODULATORY ANTIBODY-DRUG CONJUGATES” (Seagen Inc., priority 2022, published 2025)
≈ marks a conversion by molar mass, not a printed value. Where two headings read alike, the source gives them in different places.

Test system: THP1-Dual™ cells (IRF-Lucia luciferase reporter)
Assay: THP1-Dual™ cell reporter assay
Format: cell-based, human
Conditions: for EC50: small molecules, 24 h, >10,000 nM = minimal activity up to 10 μM, read-out: EC50, Lucia reporter signal; for EC50 / EC50, Lucia reporter signal: some values average of multiple experiments; for EC50, Lucia reporter signal: ADC: drug linker conjugated to targeted mAb, 48 h
Experimental: Potency of compounds and ADCs was evaluated using the THP1-Dual™ cells (Invivogen PN: thpd-nfis [also referred to as THP1 dual reporter cells]), which contain an IRF-Lucia luciferase reporter. Cells were cultured in RPMI-1640 (Gibco) with 10% heat-inactivated fetal bovine serum, Pen-Strep (100 U/mL-100 […], Gibco), HEPES (10 mM, Gibco)), sodium pyruvate (1 mM, Gibco), MEM non-essential amino acids (1×, Gibco), GlutaMAX (1×, Gibco), and beta-mercaptoethanol (55 μM, Gibco). Cells were plated in a 96-well flat bottom tissue culture-treated clear polystyrene plate (Corning Costar #3596) at ˜100,000 cells per well in 200 μL with the indicated concentration of the compound or ADC. The supernatant was harvested at 24 hours (compounds) or 48 hours (ADC) post plating for the reporter assay, or as indicated. To measure Lucia reporter signal, 10 µL of the supernatant was combined with 40 µL of QUANTI-Luc™ Luminescence assay reagent (Invivogen PN: rep-qlc1) in a 96-well clear flat bottom tissue culture-treated black polystyrene plate (Corning Costar #3603) and read on a Perkin Elmer Envision plate reader.

SMILES | EC50, Lucia reporter signal [µg/mL] | further results
CCn1nc(C)cc1C(=O)Nc1nc2cc(C(N)=O)cc(O)c2n1C/C=C/Cn1c(NC(=O)c2cc(C)nn2CC)nc2cc(C(N)=O)cc(OCCCNC)c21 [Compound 15b] | – | relative potency of free drug, Lucia reporter (free drug, 24 h (48 h elsewhere in the source)): more potent than 12a; EC50: 5.8 nM
CCn1nc(C)cc1C(=O)Nc1nc2cc(C(N)=O)cc(OC)c2n1C/C=C/Cn1c(NC(=O)c2cc(C)nn2CC)nc2cc(C(N)=O)cc(OCCCN(C)C(=O)[C@H](CC(=O)O)NC(=O)CCN3C(=O)C=CC3=O)c21 [Compound 17, (S,E)-4-((3-((5-carbamoyl-1-(4-(5-carbamoyl-2-(1-ethyl-3-methyl-1H-pyrazole-5-carboxamido)-7-methoxy-1H-benzo[d]imidazol-1-yl)but-2-en-1-yl)-2-(1-ethyl-3-methyl1H-pyrazole-5-carboxamido)-1H-benzo[d]imidazol-7-yl)oxy)propyl)(methyl)amino)-3-(3-(2,5-dioxo-2,5-dihydro-1H-pyrrol-1-yl)propanamido)-4-oxobutanoic acid] | 0.0022 (≈ 0.00208 µM) | –
CCn1nc(C)cc1C(=O)Nc1nc2cc(C(N)=O)cc(OC)c2n1C/C=C/Cn1c(NC(=O)c2cc(C)nn2CC)nc2cc(C(N)=O)cc(OCCCN(C)C(=O)[C@H](CO)NC(=O)CCN3C(=O)C=CC3=O)c21 [Compound 24, (S,E)-1-(4-(5-carbamoyl-2-(1-ethyl-3-methyl-1H-pyrazole-5-carboxamido)-7-methoxy-1H-benzo[d]imidazol-1-yl)but-2-en-1-yl)-7-(3-(2-(3-(2,5-dioxo-2,5-dihydro-1H-pyrrol-1-yl)propanamido)-3-hydroxy-N-methylpropanamido)propoxy)-2-(1-ethyl-3-methyl-1H-pyrazole-5-carboxamido)-1H-benzo[d]imidazole-5-carboxamide] | 0.0021 (≈ 0.00203 µM) | –
CCn1nc(C)cc1C(=O)Nc1nc2cc(S(N)(=O)=O)ccc2n1C/C=C/Cn1c(NC(=O)c2cc(C)nn2CC)nc2cc(C(N)=O)cc(OCCCN(C)C(=O)CCN3C(=O)C=CC3=O)c21 [Compound 25, (E)-7-(3-(3-(2,5-dioxo-2,5-dihydro-1H-pyrrol-1-yl)-N-methylpropanamido)propoxy)-2-(1-ethyl-3-methyl-1H-pyrazole-5-carboxamido)-1-(4-(2-(1-ethyl-3-methyl-1H-pyrazole-5-carboxamido)-5-sulfamoyl-1H-benzo[d]imidazol-1-yl)but-2-en-1-yl)-1H-benzo[d]imidazole-5-carboxamide] | 0.307 (≈ 0.323 µM) | –
CCn1nc(C)cc1C(=O)Nc1nc2cc(C(N)=O)cc(OC)c2n1C/C=C/Cn1c(NC(=O)c2cc(C)nn2CC)nc2cc(C(N)=O)cc(OCCC3CN(C(=O)CCN4C(=O)C=CC4=O)C3)c21 [Compound 26, (E)-1-(4-(5-carbamoyl-2-(1-ethyl-3-methyl-1H-pyrazole-5-carboxamido)-7-methoxy-1H-benzo[d]imidazol-1-yl)but-2-en-1-yl)-7-(2-(1-(3-(2,5-dioxo-2,5-dihydro-1H-pyrrol-1-yl)propanoyl)azetidin-3-yl)ethoxy)-2-(1-ethyl-3-methyl-1H-pyrazole-5-carboxamido)-1H-benzo[d]imidazole-5-carboxamide] | 0.0144 (≈ 0.015 µM) | –
CCn1nc(C)cc1C(=O)Nc1nc2cc(C(N)=O)cc(OC)c2n1C/C=C/Cn1c(NC(=O)c2cc(C)nn2CC)nc2cc(C(N)=O)cc(OCCCOC3CN(C(=O)CCN4C(=O)C=CC4=O)C3)c21 [Compound 27, (E)-1-(4-(5-carbamoyl-2-(1-ethyl-3-methyl-1H-pyrazole-5-carboxamido)-7-methoxy-1H-benzo[d]imidazol-1-yl)but-2-en-1-yl)-7-(3-((1-(3-(2,5-dioxo-2,5-dihydro-1H-pyrrol-1-yl)propanoyl)azetidin-3-yl)oxy)propoxy)-2-(1-ethyl-3-methyl-1H-pyrazole-5-carboxamido)-1H-benzo[d]imidazole-5-carboxamide] | 0.0104 (≈ 0.0105 µM) | –
COc1cc(C(N)=O)cc2nc(NC(=O)c3ccnnc3)n(C/C=C/Cn3c(NC(=O)c4cccnn4)nc4cc(C(N)=O)cc(O)c43)c12 [Compound 42] | – | EC50 (Homo sapiens, THP1-Dual): > 10000 nM
